Source: patent US11247998B2, “Piperazine heteroaryl derivative, preparation method therefor and use of same in medicine” (priority 2017, dated 2022)

Assays:
[1] = Pharmacokinetics assay in rats after intragastrical administration (LC/MS/MS of plasma); assay type: in vivo; details: both sexes, rat, plasma, po, SD rats, 2 mg/kg
Description: Pharmacokinetics assay of the compound of the present invention
Rats were used as test animals. The drug concentration in plasma at different time points was determined by LC/MS/MS method after intragastrical administration of the compound of Example 1, the compound of Example 2, the compound of Example 4, the compound of Example 6, the compound of Example 7, the compound of Example 11, the compound of Example 39, the compound of Example 42, the compound of Example 44, the compound of Example 45 and the compound of Example 47 to rats. The pharmacokinetic behavior and property of the compound of the present invention were studied and evaluated in rats.
44 Healthy adult SD rats (half male and half female, 4 rats/group) were purchased from Shanghai Jiesijie Laboratory Animal Co., LTD, with Certificate No.: SCXK (Shanghai) 2013-0006.
A certain amount of the test compound was weighed, and added with 5% by volume of DMSO, 5% by volume of tween 80 and 90% by volume of normal saline to prepare a 0.2 mg/mL colorless, clear and transparent solution.
After an overnight fast, SD rats were administrated intragastrically with the test compound at an administration dose of 2.0 mg/kg and an administration volume of 10.0 mL/kg.
The rats were intragastrically administrated the compound of Example 1, the compound of Example 2, the compound of Example 4, the compound of Example 6, the compound of Example 7, the compound of Example 11, the compound of Example 39, the compound of Example 42, the compound of Example 44, the compound of Example 45 and the compound of Example 47. 0.1 ml of blood was taken from the orbit before administration and at 0.5, 1.0, 2.0, 4.0, 6.0, 8.0, 11.0 and 24.0 hours after administration. The samples were stored in heparinized tubes, and centrifuged for 10 minutes at 3500 rpm to separate the blood plasma. The plasma samples were stored at −20° C. The rats were fed two hours after administration.
The content of the test compound in the plasma of rats after intragastrical administration of the test compound at different concentrations was determined: 25 μL of rat plasma at each time after administration was taken, added with 40 μL of the internal standard solution of camptothecin (100 ng/mL) and 200 μL of acetonitrile, vortex-mixed for 5 minutes, and centrifuged for 10 minutes (4000 rpm). 0.2 μL of the supernatant was taken from the plasma samples for LC/MS/MS analysis.

[2] = tested on: HBV DNA replication in HepG2.2.15 cells; assay: In vitro anti-HBV activity test (quantitative assay of intracellular HBV DNA), HepG2.2.15 cells, quantitative PCR; assay type: cell-based, hepatitis B virus (HBV); details: Hepatitis B virus, HBV DNA by quantitative PCR; for EC50: compound treatment Day 2 to Day 8; for Emax: read-out: Emax (effect value of the compound to maximally inhibit HBV DNA replication)
Description: In vitro anti-HBV activity test of the compound of the present invention (quantitative assay of intracellular HBV DNA)
HepG2.2.15 cell is a stable expression cell line that has integrated HBV genome.
Virus particles containing HBV DNA can be synthesized by replication, transcription and encapsidation in the cells, and then secreted. In this study, the quantitative analysis of HBV DNA produced by HepG2.2.15 in vitro proliferation was carried out by quantitative PCR method, thereby determining the activity of the compound of the present invention on inhibiting the HBV DNA replication by inhibiting the assembly of HBV capsid protein.
HepG2.2.15 cells were cultured in DMEM/high glucose medium (10% FBS, […] G418) and passaged every three days. On the day of the experiment, a cell suspension was prepared with fresh cell culture medium, and incubated in a 96-well plate (Corning, #3599) at 40,000 cells/well, at 5% carbon dioxide, 37° C. On Day 2, the compound was dissolved in pure DMSO at a concentration of 20 mM, and then the first concentration of 2 mM was formulated with DMSO, and diluted in 4-fold concentration gradient to 8 concentrations. A control well was added with 90 μl of DMSO. The compound solution was diluted 200-fold with DMEM/high glucose medium. The cell culture plate inoculated on Day 1 was taken out. The medium in the wells was removed by a negative pressure suction device, and the formulated medium containing the compound at each concentration was added respectively to each well at 200 μl/well. The plate was incubated at 37° C. for 72 hours. On Day 5, the medium of the cultured cells was replaced with fresh medium containing the same compound in the same way as Day 2, and then the plate was incubated at 37° C. for 72 hours. On Day 8, the cell culture plate was taken out, centrifuged at 300 g for 3 minutes, and the culture supernatant was collected at 200 μl/well. HBV DNA was extracted from the cell culture supernatant with Qiagen automatic DNA extraction device, and the specific method referred to the instructions of the reagents and instruments. Finally, the extracted DNA was eluted with DNA elution buffer at 100 μl/well. The extracted DNA was subjected to quantitative PCR analysis of HBV DNA using Hepatitis B virus nucleic acid quantitative detection kit (Triplex International Biosciences Co., Ltd.), and the specific method referred to the instruction of the kit. The quantitative standard curve was obtained with the standard sample provided in the kit, and the experiments were performed in parallel. Quantitative conversion of each sample was carried out according to the standard curve. Finally, the EC50 value of the compound was calculated with Graphpad Prism software according to each concentration of the compound and the corresponding DNA value.
The in vitro activity of the compound of the present invention on inhibiting the HBV DNA replication by inhibiting the assembly of HBV capsid protein was determined by the above experiment.

[3] = Effect on in vitro proliferation of HepG2 cells (CellTiter-Glo); assay type: cell-based; details: human; HepG2 cells, 72 hours, CellTiter-Glo
Description: Test Example 2. Effect of the Compound of the Present Invention on In Vitro Proliferation of HepG2 Cells
HepG2 cells in logarithmic growth phase were taken and digested with trypsin to prepare a cell suspension, which was incubated in a 96-well plate (transparent bottom white 96-well plate, PerkinElmer) at 6,000 cells/well, at 5% carbon dioxide, 37° C. for 16-20 hours. On Day 2, the compound was dissolved in pure DMSO at a concentration of 20 mM. The compound was diluted in 3-fold concentration gradient using an automatic pipetting station (Bravo), 8 concentration points for each compound, and the control well was DMSO. The compound formulated in DMSO at each concentration point was diluted 200-fold with EMEM (containing 10% FBS) medium. The cell culture plate inoculated on Day 1 was taken out. The medium in the wells was removed by a negative pressure suction device, and the formulated medium containing the compound at each concentration was added respectively to each well at 100 μl/well. The plate was incubated at 37° C. for 72 hours. On Day 5, the 96-well cell culture plate was taken out, and freshly formulated CellTiter Glo was added to each well at 100 μl/well. The 96-well plate was left to stand for 5-10 minutes, the bottom was then sealed with a white bottom sealing film (PerkinElmer). The plate was placed in the microplate reader to measure the luminescence signal. The CC50 value of the compound was calculated with Graphpad Prism software according to each concentration of the compound and the corresponding proliferation inhibition signal value.
The inhibition effect of the compound of the present invention on in vitro proliferation of HepG2 cells was determined by the above experiment.

Row | SMILES | EC50 [2] [nM] | Emax [2] [%] | CC50 at 72 h [3] [nM] | further results
1 | C[C@@H](NC(=O)c1ncn2c1CN(C(=O)Nc1cc(F)c(F)c(F)c1)CC2)C(F)(F)F [Example 1, (R)—N^7-(3,4,5-Trifluorophenyl)-N^1-(1,1,1-trifluoropropan-2-yl)-5,6-dihydroimidazo[1,5-α]pyrazine-1,7(8H)-dicarboxamide] | – | – | – | Vd/F ([1]; read-out: Apparent distribution volume Vz/F): 2.36 ± 0.245 L/kg; AUC ([1]; read-out: Area under curve AUC): 14400 ± 3010 ng·h/mL; bioavailability ([1]; read-out: Bioavailability (%) F %): 119%; CL/F ([1]; read-out: Clearance CLz/F): 2.39 ± 0.5 mL/min/kg; half-life ([1]; read-out: Half-life T1/2 (converted)): 11.7 ± 2.3 h; Cmax ([1]; read-out: Plasma concentration Cmax): 640 ± 102 ng/mL; MRT ([1]; read-out: Residence time MRT): 17.4 ± 3 h
2 | C[C@H]1Cn2ncc(C(=O)NC(C)(C)C)c2CN1C(=O)Nc1ccc(F)c(F)c1 [Example 8, (S)—N^3-(Tert-butyl)-N^5-(3,4-difluorophenyl)-6-methyl-6,7-dihydropyrazolo[1,5-α]pyrazine-3,5(4H)-dicarboxamide] | 15 | 100 | > 100000 | –
3 | C[C@@H](NC(=O)c1cnn2c1CN(C(=O)Nc1ccc(F)c(C#N)c1)CC2)C(F)(F)F [Example 9, (R)—N^5-(3-Cyano-4-fluorophenyl)-N^3-(1,1,1-trifluoropropan-2-yl)-6,7-dihydropyrazolo[1,5-α]pyrazine-3,5(4H)-dicarboxamide] | 28 | 100 | > 100000 | –
4 | C[C@H]1Cn2ncc(C(=O)NC(C)(C)C)c2CN1C(=O)Nc1cc(F)c(F)c(F)c1 [Example 10, (S)—N^3-(Tert-butyl)-6-methyl-N^5-(3,4,5-trifluorophenyl)-6,7-dihydropyrazolo[1,5-α]pyrazine-3,5(4H)-dicarboxamide] | 29 | 100 | > 100000 | –
5 | C[C@H]1Cn2cnc(C(=O)NC(C)(C)C)c2CN1C(=O)Nc1ccc(F)c(F)c1 [Example 12, (S)—N^1-(Tert-butyl)-N^7-(3,4-difluorophenyl)-6-methyl-5,6-dihydroimidazo[1,5-α]pyrazine-1,7-(8H)-dicarboxamide] | 32 | 100 | > 100000 | –
6 | C[C@H]1Cn2cnc(C(=O)NC3(C)COC3)c2CN1C(=O)Nc1cc(F)c(F)c(F)c1 [Example 13, (S)-6-Methyl-N^1-(3-methyloxetan-3-yl)-N^7-(3,4,5-trifluorophenyl)-5,6-dihydroimidazo[1,5-α]pyrazine-1,7(8H)-dicarboxamide] | 35 | 100 | > 100000 | –
7 | C[C@H]1Cn2ncc(C(=O)NC3(C)COC3)c2CN1C(=O)Nc1cc(F)c(F)c(F)c1 [Example 14, (S)-6-Methyl-N^3-(3-methyloxetan-3-yl)-N^5-(3,4,5-trifluorophenyl)-6,7-dihydropyrazolo[1,5-a]pyrazine-3,5(4H)-dicarboxamide] | 44 | 100 | > 100000 | –
8 | C[C@H]1Cn2ncc(C(=O)N[C@H](C)C(F)(F)F)c2CN1C(=O)Nc1ccc(F)c(C#N)c1 [Example 15, (S)—N^5-(3-Cyano-4-fluorophenyl)-6-methyl-N^3-((R)-1,1,1-trifluoropropan-2-yl)-6,7-dihydropyrazolo[1,5-α]pyrazine-3,5(4H)-dicarboxamide] | 29 | 100 | > 100000 | –
9 | C[C@H]1Cn2ncc(C(=O)N[C@H](C)C(F)(F)F)c2CN1C(=O)Nc1cc(F)nc(F)c1 [Example 16, (S)—N^5-(2,6-Difluoropyridin-4-yl)-6-methyl-N^3-((R)-1,1,1-trifluoropropan-2-yl)-6,7-dihydropyrazolo[1,5-α]pyrazine-3,5(4H)-dicarboxamide] | 50 | 100 | > 100000 | –
10 | C[C@@H](NC(=O)c1nnn2c1CN(C(=O)Nc1cc(F)c(F)c(F)c1)CC2)C(F)(F)F [Example 17, (R)—N^5-(3,4,5-Trifluorophenyl)-N^3-(1,1,1-trifluoropropan-2-yl)-6,7-dihydro-[1,2,3]triazolo[1,5-α]pyrazine-3,5(4H)-dicarboxamide] | 70 | 80 | > 100000 | –
11 | Cc1cc(NC(=O)N2Cc3c(C(=O)N[C@H](C)C(F)(F)F)nnn3C[C@@H]2C)ccc1F [Example 40, (S)—N^5-(4-Fluoro-3-methylphenyl)-6-methyl-N^3-((R)-1,1,1-trifluoropropan-2-yl)-6,7-dihydro-[1,2,3]triazolo[1,5-α]pyrazine-3,5(4H)-dicarboxamide] | 20 | 100 | > 100000 | –
12 | C[C@H](NC(=O)c1ncn2c1CN(C(=O)Nc1ccc(F)c(F)c1)[C@@H](C)C2)C(F)(F)F [Example 41, (S)—N^7-(3,4-Difluorophenyl)-6-methyl-N^1—((S)-1,1,1-trifluoropropan-2-yl)-5,6-dihydroimidazo[1,5-α]pyrazine-1,7(8H)-dicarboxamide] | 24 | 100 | > 100000 | –
13 | C[C@H]1Cn2cnc(C(=O)N3CCCC3)c2CN1C(=O)Nc1ccc(F)c(F)c1 [Example 59, (S)—N-(3,4-Difluorophenyl)-6-methyl-1-(pyrrolidine-1-carbonyl)-5,6-dihydroimidazo[1,5-α]pyrazine-7(8H)-carboxamide, reference compound] | 5270 | 90 | – | –
